Each structure is given as a SMILES string.

The data set in a line: Gel test (vial inversion). Format: physicochemical. How it is done:
A weighed amount of solid was dissolved in 0.5 or 1 ml of the solvent in a closed 2.0 ml vial using a heating gun or a heating block and subsequently slowly cooled to room temperature by standing in the air. Gelation was determined by turning the vial upside down and gentle shaking. If no flow of the mass was observed, the mass was defined to be a gel. Alternatively, a weighed amount of solid was dissolved in 1 mL of solvent by the addition of acid or base. The subsequent addition of base or acid then gave gelation. Alternatively, a weighed amount of solid was dissolved in a small amount of solvent. The subsequent addition of a large amount of non-solvent then gave gelation. Alternatively, the solution of gelator/thickener was added to the non-solvent, resulting in gelation. Alternatively, a weighed amount of solid was mixed with 1 mL of solvent by sonication. After stopping the sonication, gelation occurred. Alternatively a weighed amount of solid was mixed with 1 mL of solvent by brief vortexing after which gelation occurred. Alternatively a weighed amount of solid was mixed with 1 mL of solvent after which gelation occurred.

Where [1] appears, read: PEG 400 (printed PEG for compound 20).

As to `O=C(O)[C@@H]1C[C@H](C(=O)O)C[C@H](C(=O)N[C@@H](Cc2ccccc2)C(=O)Nc2ccc3ccccc3c2)C1` [Compound 1, CHex(AmPhe-AmβNA)(COOH)2], the Gel test entry (3 mg/mL in H2O) is “slightly crystalline gel”.
Take `O=C(NCCOCCO)[C@@H]1C[C@H](C(=O)NCCOCCO)C[C@H](C(=O)N[C@@H](Cc2ccccc2)C(=O)Nc2ccc3ccccc3c2)C1` [Compound 2, CHex(AmPhe-AmβNA)(AmEtOEtOH)2]: the Gel test entry (1 mg/mL in H2O) is listed as “clear gel”.
On to `CSCC[C@H](NC(=O)[C@@H]1C[C@H](C(=O)O)C[C@H](C(=O)O)C1)C(=O)Nc1ccc2ccccc2c1` [Compound 3, CHex(AmMet-AmβNA)(COOH)2], for which the Gel test entry (3 mg/mL in H2O) was “slightly crystalline gel”.
For the molecule `CSCC[C@H](NC(=O)[C@@H]1C[C@H](C(=O)NCCOCCO)C[C@H](C(=O)NCCOCCO)C1)C(=O)Nc1ccc2ccccc2c1` [Compound 4, CHex(AmMet-AmβNA)(AmEtOEtOH)2], the Gel test result is reported as “clear gel” (1 mg/mL in H2O) and “clear gel” (3 mg/mL in MeOH).
With `CSCC[C@H](NC(=O)[C@@H]1C[C@H](C(=O)NCCO)C[C@H](C(=O)NCCO)C1)C(=O)Nc1ccc2ccccc2c1` [Compound 5, CHex(AmMet-AmβNA)(AmEtOH)2], where the note is “2 mg/mL in H2O”, the Gel test entry was “clear gel”.
With `CSCC[C@H](NC(=O)[C@@H]1C[C@H](C(=O)NCc2ccncc2)C[C@H](C(=O)NCc2ccncc2)C1)C(=O)Nc1ccc2ccccc2c1` [Compound 6, CHex(AmMet-AmβNA)(AmCH2Pyr)2], the Gel test entry (1 mg/mL in H2O) is “slightly turbid gel”.
Take `O=C(O)[C@@H]1C[C@H](C(=O)O)C[C@H](C(=O)N[C@@H](Cc2ccccc2)C(=O)NCc2ccccc2)C1` [Compound 7, CHex(AmPhe-AmBn)(COOH)2]: the Gel test entry (3 mg/mL in H2O) is given as “slightly turbid gel”.
`O=C(NCCOCCO)[C@@H]1C[C@H](C(=O)NCCOCCO)C[C@H](C(=O)N[C@@H](Cc2ccccc2)C(=O)NCc2ccccc2)C1` [Compound 8, CHex(AmPhe-AmBn)(AmEtOEtOtH)2]: the Gel test entry is on record as “clear gel (thixotropic)” (1 mg/mL in H2O); “gel” (EtOH); “gel” (H2O/PG mixtures); “gel” (H2O/t-BuOH (TBA/H2O) mixtures); “gel” (MeCN); “gel” under setting [1]. Also, the Gel test result reads like this: (olive oil) “weak gel”; (propylene glycol (PG)) “gel”; (t-BuOH) “gel”. Further, under “hydrogel 2 mg/ml + olive oil 200 μL, vortexed five seconds”, the Gelation of emulsion result was “gelated emulsion”.
`COc1ccc(NC(=O)[C@H](Cc2ccccc2)NC(=O)[C@@H]2C[C@H](C(=O)O)C[C@H](C(=O)O)C2)cc1` [Compound 9, CHex(AmPhe-AmPh-OMe)(COOH)2]: for the setting “3 mg/mL in H2O”, the Gel test result is listed as “clear gel”.
Take `COc1ccc(NC(=O)[C@H](Cc2ccccc2)NC(=O)[C@@H]2C[C@H](C(=O)NCCOCCO)C[C@H](C(=O)NCCOCCO)C2)cc1` [Compound 10, CHex(AmPhe-AmPh-OMe)(AmEtOEtOH)2]: under “3 mg/mL in H2O”, the Gel test entry is “clear gel”.
Regarding `C[C@H](NC(=O)[C@@H]1C[C@H](C(=O)O)C[C@H](C(=O)O)C1)C(=O)Nc1ccc2ccccc2c1` [Compound 13, CHex(AmAlaAmβNA)(COOH)2], the Gel test result (H2O, concentration not given) was “gel”.
Regarding `O=C(NCCOCCO)[C@@H]1C[C@H](C(=O)NCCOCCO)C[C@H](C(=O)N[C@@H](Cc2ccccc2)C(=O)Nc2ccc([N+](=O)[O-])cc2)C1` [Compound 14, CHex(AmPheAmPhNO2)(AmEtOEtOH)2], the Gel test entry (H2O, concentration not given) is given as “yellow, weak gel”. Besides, under “heating in water, yellow color (p-NA) observed”, the “Stability upon heating in water” value is reported as “hydrolysis of the PheAmPhNO2 amide takes place”.
On to `O=C(N[C@@H](Cc1ccccc1)C(=O)NC1CCCCC1)[C@H]1C[C@@H](C(=O)OCc2ccccc2)C[C@@H](C(=O)OCc2ccccc2)C1` [Compound 16, CHex(OBn)2(AmPheAmCHex)], for which the Gel test result is, setting by setting: (EtOH) “gel”; (MeCN) “gel”; under setting [1], “gel”; (olive oil) “gel”.
For `O=C(NCCOCCO)[C@@H]1C[C@H](C(=O)NCCOCCO)C[C@H](C(=O)N[C@@H](Cc2ccccc2)C(=O)NC2CCCCC2)C1` [Compound 18, CHex(AmPheAmCHex)(AmEtOEtOH)2], the Gel test entry is “clear gel” (2 mg/mL in H2O) and “turbid gel” (20 mg/mL in DMSO).
With `CCCCCCCCCCNC(=O)[C@H](Cc1ccccc1)NC(=O)[C@@H]1C[C@H](C(=O)O)C[C@H](C(=O)O)C1` [Compound 19, CHex(AmPheAmDecyl)(COOH)2], the Gel test entry by setting is: (H2O, concentration not given) “clear gel”; (toluene) “gel”.
Consider `CCCCCCCCCCNC(=O)[C@H](Cc1ccccc1)NC(=O)[C@@H]1C[C@H](C(=O)NCCOCCO)C[C@H](C(=O)NCCOCCO)C1` [Compound 20, CHex(AmPheAmDecyl)(AmEtOEtOH)2], for which the Gel test entry is recorded as “gel” (EtOH); “gel” (H2O, concentration not given); “gel” under setting [1]; “gel” (toluene).
Take `CCCCCC(C)NC(=O)[C@H](Cc1ccccc1)NC(=O)[C@@H]1C[C@H](C(=O)O)C[C@H](C(=O)O)C1` (stereo partly shown) [Compound 21, CHex(AmPheAm2-Heptyl)(COOH)2]: the Gel test result (H2O, concentration not given) is “gel” and the Gel test entry (toluene) is reported as “gel”.
In the case of `COC(=O)[C@H](Cc1ccccc1)NC(=O)[C@H](Cc1ccccc1)NC(=O)[C@@H]1C[C@H](C(=O)O)C[C@H](C(=O)O)C1` [Compound 22, CHex(AmPheAmPheOMe)(COOH)2], the Gel test entry (toluene) was “gel”.
Turning to `O=C(O)[C@@H]1C[C@H](C(=O)O)C[C@H](C(=O)N[C@@H](Cc2ccccc2)C(=O)N[C@@H](Cc2ccccc2)C(=O)O)C1` [Compound 23, CHex(AmPheAmPheOH)(COOH)2], under “compound 22 heated in 1N NaOH (aq), cooled to RT, 2N HCl (aq) added”, the “Aqueous gel formation by acidification” value is reported as “gel”.
As for `O=C(NCCOCCO)[C@@H]1C[C@H](C(=O)NCCOCCO)C[C@H](C(=O)N[C@@H](Cc2ccc(O)cc2)C(=O)Nc2ccc3ccccc3c2)C1` [Compound 24, CHex(AmTyrAmβNA)(AmEtOEtOH)2], the Gel test entry reads like this: (1 mg/mL in H2O) “clear gel”; (EtOH) “gel”; (MeCN) “gel”; (olive oil) “gelly precipitate”.
As to `O=C(O)[C@@H]1C[C@H](C(=O)O)C[C@H](C(=O)N[C@@H](Cc2ccccc2)C(=O)NCCc2ccccc2)C1` [Compound 25, CHex(AmPheAmEtPh)(COOH)2], the Gel test entry (H2O, concentration not given) is listed as “gel” and the Gel test result (toluene) is on record as “gel”.
Consider `O=C(NCCOCCO)[C@@H]1C[C@H](C(=O)NCCOCCO)C[C@H](C(=O)N[C@@H](Cc2ccccc2)C(=O)NCCc2ccccc2)C1` [Compound 26, CHex(AmPheAmEtPh)(AmEtOEtOH)2], for which the Gel test entry was “gel (thixotropic)” (H2O, concentration not given); “gel” (H2O/PG mixtures); “gel” (H2O/t-BuOH (TBA/H2O) mixtures); “gel” (propylene glycol (PG)); “gel” (t-BuOH).
Take `O=C(CNC(=O)[C@H](Cc1ccccc1)NC(=O)[C@@H]1C[C@H](C(=O)O)C[C@H](C(=O)O)C1)Nc1ccc2ccccc2c1` [Compound 27, CHex(AmPheAmGlyAmβNA)(COOH)2]: the Gel test result (H2O, concentration not given) is reported as “gel”.
Consider `COC(=O)[C@H](Cc1ccccc1)NC(=O)[C@@H]1C[C@H](C(=O)N[C@@H](Cc2ccccc2)C(=O)OC)C[C@H](C(=O)OCc2ccccc2)C1` [Compound 29, CHex(AmPhe-OMe)2(OBn)], for which the Gel test entry reads like this: (EtOH) “gel”; (MeOH) “gel”; (olive oil) “gel”; (toluene) “gel”.
